Measured values published in patent US6828315B1, “1-Amino triazoloc4,3-a! quinazoline-5-ones and/or -5-thiones inhibiting phosphodiesterase IV” (Warner-Lambert LLC, priority 1999, dated 2004).

How the values were obtained:
[1] = dose of 20 mg as a single intake; cited from earlier work
[2] = molecular target: type 4 phosphodiesterases (PDE4); experiment: Inhibition of the phosphodiesterase (PDE4), enzymatic preparation from line U937; format: biochemical; conditions: PDE4 from cytosolic preparation of human cell line U937
Procedure: The capacity of the formula (I) compounds of the invention to inhibit the cyclic nucleotide phosphodiesterases is evaluated by their Cl50 measurement (necessary concentration to inhibit 50% of enzymatic activity).
The type 4 phosphodiesterases are obtained from a cytosolic preparation extracted from the human origin cellular line U937 according to a method adapted from T. J. Torphy and al., 1992, J.Pharm.Exp. Ther. 263: 1195-1205
The other classes of phosphodiesterases are obtained after partial purification FPLC on Mono Q column. (anion exchange column) according to a method adapted from Lavan B. E., Lakey T., Houslay M. D. Biochemical Pharmacology, 1989, 38(22), 4123-4136., and from Silver P. J and al., 1988, Eur.J. Pharmacol. 150: 85-94, either, from human origin cellular lines for PDE 1 (monocytar line TPH1) and PDE5 (line MCF7 issued from an adenocarcinoma), or from dog aorta for PDE 3, or for the human PDE3A, from gene cloning in insect cells SF21 in baculovirus, according to a method adapted from Luckow, V. A. and al., 1991 in Recombinant DNA Technology&Applications.,eds. Prokop, Bajpai,R. K.&Ho,C. S., pp97-152. The enzymatic activity measurement of the different PDE classes, and in particular the PDE 4, is performed according to a method adapted from W. J. Thompson and al. 1979, Advances in Cyclic Nucleotide Research, Vol. 10: 69-92, ed. G. Brooker and al. Raven Press, NY.
For the Cl50 determination, the enzymatic activity is measured in the presence of inhibitor within concentration margins of 0.1 to 100 μM.
The following table illustrates the PDE4 inhibitory activity from enzymatic preparation obtained from the line U937.

[3] = system: TNFα production by human leukocytes; experiment: Inhibition of TNFα production by human leukocytes stimulated by lipopolysaccharid; format: cell-based; conditions: Leukocyte; LPS-stimulated human leukocytes in 75% human serum; TNFα by ELISA after 15-18 hours
Procedure: This test aims to evaluate capacity of the compounds of the invention to inhibit TNFα (tumor necrosis-α) production by human leukocytes in the presence of high human serum concentration (75%). […] The test described here is based on the use of human leukocytes cultivated in 75% of human serum. It had been previously documented that these conditions simulate the observed situation when TNFα dosage is performed in human blood.
The compounds to test are dissolved into 20 mM (sometimes 6 mM) of DMSO. 100 μl of DMSO are distributed into 7 wells of a a 96 well microtiter plate (wells B to H). 150 μl of the compound solution are distributed into line A wells. 50 μl are then sequentially transferred 7 times. 20 μl of this serial dilutions of compounds are sequentially transferred twice in wells containing 180 μl of RPMI 1640 (Gibco). 50 μl of these dilutions are then transferred in wells where cells will be added.
Each test includes a series of eight wells without LPS (100% of inhibition), eight wells with LPS (0% of inhibition) and a series of Rolipram dilutions in order to enable comparison of the tests between each other and then to evaluate their variability.
A leukocyte vial is unfrozen in bain-marie (37° C.), its content is transferred into a 15 ml tube containing 10 ml of RPMI added with 5% of human serum (RPMI-5% HS). The cells are sedimented (800 g, 6 minutes, 4° C.), resuspended in 10 ml of the same medium and counted by dilution in Trypan blue solution. After centrifugating (800 g, 6 minutes, 4° C.), the cells are resuspended to 2×10^6/ml in human serum.
To 50 μl aliquots of different dilutions of compounds, 100 μl of cells are added. The plates are then incubated 30 minutes at 37° C., then 50 μl of solution 4 μg/ml of LPS prepared in human serum are added. The plates are incubated for the night at 37° C.
After incubation for 15-18 hours, 90 μl of growth supernatant are taken and transferred into rounded-bottom microtiter wells. The TNFα presence is then evaluated by ELISA (Pharmingen) by using 50 μl of supernatant. The protocol described by the manufacturer is strictly applied.

[4] = system: TNFα production in plasma; experiment: In vivo TNFα model in Wistar rat; conditions: po, 1.5 h, 10 mg/kg p.o. 30 min before LPS i.p., plasma TNFα 90 min after LPS, male Wistar rats, read-out: % Inhibition to 10 mg/kg
Description: The TFNα is a cytokin playing a central role in inflammation mechanisms. Its production may be induced by injection of lipopolysaccharid (LPS). It has been shown that the intracellular AMPc increase, produced in particular by PDE4 inhibitors, decreases the TNFα production in in vitro and in vivo models. Therefore it matters here to quantify in vivo anti-inflammatory potential of the compounds of the invention, administrated by oral route (p.o.) by measuring inhibition of TNFα production in plasma in rat, the latter having received a intraperitoneal injection (i.p.) of lipolysaccharid (LPS). The treatment by the compounds of the invention or the carrier is administrated by oral route in male Wistar rats, 30 min. before LPS injection. The rats are sacrificed 90 min. after LPS stimulation, the blood is harvested on EDTA and TNFα concentration is measured in each plasma sample.

Question: For `COc1ccc([C@]2(C#N)CC[C@@H](C(=O)O)CC2)cc1OC1CCCC1` [Ariflo], which adverse events [1] is on record?
Answer: significant adverse events, of the nausea and vomiting type

Question: With `CN(C)c1nnc2n(C/C=C/c3cccnc3)c(=O)c3cc(Br)ccc3n12` [Compound 3, 7-Bromo-1-dimethylamino-4-((E)-3-pyridin-3-yl-allyl)-4H-[1,2,4]triazolo[4,3-a]quinazolin-5-one] as the molecule, how does the IC50 [2] read?
Answer: 79 nM

Question: What about the IC50 [3] of the same molecule?
Answer: 3400 nM

Question: What about the change in vivo at 10 mg/kg [4] of the same molecule?
Answer: -98%

Question: With `COc1ccc(Cn2c(=O)c3cc(Br)ccc3n3c(N4CCCCCC4)nnc23)cc1OC` [Compound 35, 1-Azepan-1-yl-7-bromo-4-(3,4-dimethoxy-benzyl)-4H-[1,2,4]triazolo[4,3-a]quinazolin-5-one] as the molecule, how does the IC50 [2] read?
Answer: 20 nM

Question: And the change in vivo at 10 mg/kg [4]?
Answer: -51%

Question: And the melting point?
Answer: 185 °C

Question: For `N#Cc1ccc(Cn2c(=O)c3cc(Br)ccc3n3c(N4CCCC4)nnc23)cc1` [Compound 46, 4-(7-Bromo-5-oxo-1-pyrrolidin-1-yl-5H-[1,2,4]triazolo[4,3-a]quinazolin-4-ylmethyl)-benzonitrile], which IC50 [2] is on record?
Answer: 90 nM

Question: What about the change in vivo at 10 mg/kg [4] of the same molecule?
Answer: -58%

Question: What about the melting point of the same molecule?
Answer: 116 °C

Question: With `CN(C)c1nnc2n(Cc3ccc(C#N)cc3)c(=O)c3cc(Br)ccc3n12` [Compound 79, 4-(7-Bromo-1-dimethylamino-5-oxo-5H-[1,2,4]triazolo[4,3-a]quinazolin-4-ylmethyl)-benzonitrile] as the molecule, how does the IC50 [2] read?
Answer: 140 nM

Question: And the IC50 [3]?
Answer: 5200 nM

Question: What about the change in vivo at 10 mg/kg [4] of the same molecule?
Answer: -72%

Question: What about the melting point of the same molecule?
Answer: 207 °C

Question: Which IC50 [2] does the source give for `CN(C)c1nnc2n(CC=Cc3ccccc3)c(=O)c3cc(Br)ccc3n12` [Compound 85, 7-Bromo-1-dimethylamino-4-(3-phenyl-allyl)-4H-[1,2,4]triazolo[4,3-a]quinazolin-5-one] here?
Answer: 41 nM

Question: And the IC50 [3]?
Answer: 6800 nM

Question: What about the change in vivo at 10 mg/kg [4] of the same molecule?
Answer: -77%

Question: What about the melting point of the same molecule?
Answer: 171 °C

Question: With `Cc1ccc2c(c1)c(=O)n(Cc1cccnc1)c1nnc(N3CCCCCC3)n21` [Compound 91, 1-Azepan-1-yl-7-methyl-4-pyridin-3-ylmethyl-4H-[1,2,4]triazolo[4,3-a]quinazolin-5-one] as the molecule, how does the change in vivo at 10 mg/kg [4] read?
Answer: -70%

Question: And the melting point?
Answer: 175 °C

Question: What does the source list for `Cc1ccc2c(c1)c(=O)n(Cc1ccc(C#N)cc1)c1nnc(N3CCCC3)n21` [Compound 93, 4-(7-Methyl-5-oxo-1-pyrrolidin-1-yl-5H-[1,2,4]triazolo[4,3-a]quinazolin-4-ylmethyl)-benzonitrile]?
Answer: IC50 [3]: 4300 nM; change in vivo at 10 mg/kg [4]: -67%; melting point: 166 °C

Question: With `COc1ccc(Cn2c(=O)c3cc(C)ccc3n3c(N4CCCC4)nnc23)cc1OC` [Compound 94, 4-(3,4-Dimethoxy-benzyl)-7-methyl-1-pyrrolidin-1-yl-4H-[1,2,4]triazolo[4,3-a]quinazolin-5-one] as the molecule, how does the IC50 [2] read?
Answer: 29 nM

Question: And the IC50 [3]?
Answer: 6300 nM

Question: What about the change in vivo at 10 mg/kg [4] of the same molecule?
Answer: -87%

Question: And the melting point?
Answer: 184 °C

Question: What does the source list for `Cc1ccc2c(c1)c(=O)n(CC=Cc1ccccc1)c1nnc(N3CCCC3)n21` [Compound 98, 7-Methyl-4-(3-phenyl-allyl)-1-pyrrolidin-1-yl-4H-[1,2,4]triazolo[4,3-a]quinazolin-5-one]?
Answer: IC50 [2]: 29 nM; change in vivo at 10 mg/kg [4]: -75%; melting point: 173 °C

Question: Which results are given for `Cc1ccc2c(c1)c(=O)n(Cc1ccc(C#N)cc1)c1nnc(N(C)C)n21` [Compound 101, 4-(1-Dimethylamino-7-methyl-5-oxo-5H-[1,2,4]triazolo[4,3-a]quinazolin-4-ylmethyl)-benzonitrile]?
Answer: IC50 [3]: 8600 nM; change in vivo at 10 mg/kg [4]: -80%; melting point: 201 °C

Question: Which results are given for `Cc1ccc2c(c1)c(=O)n(C/C=C/c1ccccc1)c1nnc(N(C)C)n21` [Compound 103, 1-Dimethylamino-7-methyl-4-((E)-3-phenyl-allyl)-4H-[1,2,4]triazolo[4,3-a]quinazolin-5-one]?
Answer: IC50 [2]: 39 nM; IC50 [3]: 10700 nM; melting point: 171 °C

Question: For `Cc1ccc2c(c1)c(=O)n(CC=Cc1cccnc1)c1nnc(N(C)C)n21` [Compound 104, 1-Dimethylamino-7-methyl-4-(3-pyridin-3-yl-allyl)-4H-[1,2,4]triazolo[4,3-a]quinazolin-5-one], which IC50 [2] is on record?
Answer: 77 nM

Question: What about the IC50 [3] of the same molecule?
Answer: 8100 nM

Question: And the change in vivo at 10 mg/kg [4]?
Answer: -94%

Question: And the melting point?
Answer: 155 °C

Question: With `O=c1c2cc(Br)ccc2n2c(N3CCCCCC3)nnc2n1Cc1ccccc1` [Compound 163, 1-(azepan-1-yl)-4-benzyl-7-bromo-4H-[1,2,4]triazolo[4,3-a]-quinazolin-5-one] as the molecule, how does the change in vivo at 10 mg/kg [4] read?
Answer: -64%

Question: With `CN(C)C(=O)Cc1ccc(Cn2c(=O)c3cc(Br)ccc3n3c(N4CCCC4)nnc23)cc1` [Compound 242, 2-[4-(7-Bromo-5-oxo-1-pyrrolidin-1-yl-5H-[1,2,4]triazolo[4,3-a]quinazolin-4-ylmethyl)-phenyl]-N,N-dimethyl-acetamide] as the molecule, how does the IC50 [2] read?
Answer: 11 nM

Question: And the melting point?
Answer: 202 °C

Question: For `O=C(Cc1ccc(Cn2c(=O)c3cc(Br)ccc3n3c(N4CCCC4)nnc23)cc1)NO` [Compound 243, 2-[4-(7-Bromo-5-oxo-1-pyrrolidin-1-yl-5H-[1,2,4]triazolo[4,3-a]quinazolin-4-ylmethyl)-phenyl]-N-hydroxy-acetamide], which IC50 [2] is on record?
Answer: 28 nM

Question: And the melting point?
Answer: 229 °C

Question: For `Cc1ccc2c(c1)c(=S)n(CC=Cc1cccnc1)c1nnc(N(C)C)n21` [Compound 246, 1-Dimethylamino-7-methyl-4-(3-pyridin-3-yl-allyl)-4H-[1,2,4]triazolo[4,3-a]quinazoline-5-thione], which IC50 [2] is on record?
Answer: 41 nM

Question: What about the melting point of the same molecule?
Answer: 133 °C
